System: 958667-338-R-J2-PDC tumor spheroids viability
Assay: Anticancer human tumor 958667-338-R-J2-PDC patient-derived colon adenocarcinoma cell line growth inhibition [PI3K]
Details: spheroids with HUVEC and MSC; for IC50: curve of first compound; for viability, T/C: stronger effect = lower value
From the text: Combinatorial screen of targeted agents with the PI3K inhibitors inavolisib, alpelisib, duvelisib, and copanlisib in multi-cell type tumor spheroids
A high-throughput screen of multi-cell type tumor spheroids was designed to identify active combinations of targeted small molecules and PI3K pathway inhibitors. Complex spheroids include a stromal component modeled by human endothelial cells (HUVEC) and fibroblasts modeled by human mesenchymal stem cells (MSCs). The concentration ranges selected for each drug and investigational agent were based upon clinically achievable concentrations if the clinical Cmax of the agent was known.
Compounds. The drugs and investigational agents: inavolisib (NSC800729), alpelisib (NSC765974), duvelisib (NSC772469), copanlisib (NSC816437), ipatasertib (NSC767898), afuresertib (NSC778305), talazoparib (NSC767125), sapanisertib (NSC764658), selumetinib (NSC741078), tovorafenib (DAY101, NSC766906), vemurafenib (NSC761431), ravoxertinib (NSC781343), sotorasib (NSC818433), MRTX1133 (NSC 836407), abemaciclib (NSC 768073), palbociclib (NSC758247), venetoclax (NSC 766270), SY5609 (NSC837396), enzalutamide (NSC755605), and darolutamide (NSC825331), were obtained from the National Cancer Institute (NCI) Developmental Therapeutics Program Chemical Repository. The FDA-approved anticancer drug set is available from the NCI Developmental Therapeutics Program. […] The stock solutions were prepared in dimethyl sulfoxide (DMSO, Sigma-Aldrich, St. Louis, MO, cat. D2650) at 800-fold the tested concentration and stored at -70 degrees C prior to their use. All drugs and investigational agents were tested over a range starting from a high concentration at or near the clinical Cmax and decreasing in half-log increments. If the clinical Cmax for an agent had not been determined, the highest concentration tested was 10 microM.
Cell Culture. All cells were maintained in an incubator at 37 degrees C and 5% CO2 with 95% humidity. The PDC lines were cultured according to standard operating procedures established by the NCI PDMR (https://pdmr.cancer.gov/sops/default.htm). All PDCs were thawed and cultured in Matrigel-coated flasks prepared with a working solution of 1X Ham's F-12 nutrient mix, without supplementation (Invitrogen, Waltham, MA, cat. 11765054), 100 U/mL penicillin-streptomycin (Invitrogen, cat. 15140122), and 2.5% Matrigel (Corning Inc., Corning, NY, cat. 354248) for the first three passages. The 354836-022-R-J1-PDC, 475296-252-R-J1-PDC, and 997726-040-R-J2-PDC lines were cultured in 6A media, which includes advanced DMEM/F-12 (Thermo Fisher Scientific, cat. 12634028), 10 mM HEPES (Thermo Fisher Scientific, cat. 15630080), 1X GlutaMAX supplement (Thermo Fisher Scientific, cat. 35050061), 0.1 mg/mL primocin (InvivoGen, San Diego, CA, cat. ant-pm-2), 10% defined fetal bovine serum, heat inactivated (HyClone Laboratories Inc., Logan, UT, cat. SH30070.03HI), 50% L-WRN conditioned media (ATCC, cat. CRL-3276), 1.25 mM N-Acetyl-L-cysteine (Sigma-Aldrich, cat. A9165), 10 mM nicotinamide (Sigma-Aldrich, cat. N0636), 1X B-27 supplement (Thermo Fisher Scientific, cat. 17504044), 1X N-2 supplement (Thermo Fisher Scientific, cat. 17502048), and 10 microM Y-27632 dihydrochloride (Tocris Bioscience, Bristol, United Kingdom, cat. 1254). The 624824-186-R-J2-PDC line was cultured in 6C/Colon 1B media, which includes all 6A media components plus 50 ng/mL human EGF recombinant protein (Thermo Fisher Scientific, cat. PHG0311). […]
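Also: spheroids exposed to compounds for seven days before readout.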

Molecule CC(C)n1nc(-c2ccc3oc(N)nc3c2)c2c(N)ncnc21 + CC(Nc1ccc2c(c1)OCCn1cc(N3C(=O)OCC3C(F)F)nc1-2)C(N)=O has an IC50 (second compound 0.00316 µM) of 65.1 nM, an IC50 (second compound 0.01 µM) of 64.9 nM and an IC50 (second compound 0.0316 µM) of 43.6 nM. It also gave an IC50 (second compound 0.1 µM) of 52.5 nM, an IC50 (second compound 0.316 µM) of 28.7 nM and an IC50 (second compound 1 µM) of 2.71 nM. The viability, T/C (second compound 0.00316 µM, first compound 0.000316 µM) was 103%, the viability, T/C (second compound 0.00316 µM, first compound 0.001 µM) was 120% and the viability, T/C (second compound 0.00316 µM, first compound 0.00316 µM) was 92.5%. For the same molecule, the viability, T/C (second compound 0.00316 µM, first compound 0.01 µM) was 91.7%, the viability, T/C (second compound 0.00316 µM, first compound 0.0316 µM) was 80.8% and the viability, T/C (second compound 0.00316 µM, first compound 0.1 µM) was 33.3%. The viability, T/C (second compound 0.01 µM, first compound 0.000316 µM) was 109%, the viability, T/C (second compound 0.01 µM, first compound 0.001 µM) was 109% and the viability, T/C (second compound 0.01 µM, first compound 0.00316 µM) was 95.9%. For the same molecule, the viability, T/C (second compound 0.01 µM, first compound 0.01 µM) was 94.7%, the viability, T/C (second compound 0.01 µM, first compound 0.0316 µM) was 71% and the viability, T/C (second compound 0.01 µM, first compound 0.1 µM) was 37.1%. It also gave a viability, T/C (second compound 0.0316 µM, first compound 0.000316 µM) of 99.5%, a viability, T/C (second compound 0.0316 µM, first compound 0.001 µM) of 74.3% and a viability, T/C (second compound 0.0316 µM, first compound 0.00316 µM) of 81.5%. For the same molecule, the viability, T/C (second compound 0.0316 µM, first compound 0.01 µM) was 65%, the viability, T/C (second compound 0.0316 µM, first compound 0.0316 µM) was 64.5% and the viability, T/C (second compound 0.0316 µM, first compound 0.1 µM) was 32.9%. The viability, T/C (second compound 0.1 µM, first compound 0.000316 µM) was 79.3%, the viability, T/C (second compound 0.1 µM, first compound 0.001 µM) was 86.9% and the viability, T/C (second compound 0.1 µM, first compound 0.00316 µM) was 85.9%. It also gave a viability, T/C (second compound 0.1 µM, first compound 0.01 µM) of 75.3%, a viability, T/C (second compound 0.1 µM, first compound 0.0316 µM) of 68% and a viability, T/C (second compound 0.1 µM, first compound 0.1 µM) of 28.7%. For the same molecule, the viability, T/C (second compound 0.316 µM, first compound 0.000316 µM) was 58.2%, the viability, T/C (second compound 0.316 µM, first compound 0.001 µM) was 59.8% and the viability, T/C (second compound 0.316 µM, first compound 0.00316 µM) was 66.2%. For the same molecule, the viability, T/C (second compound 0.316 µM, first compound 0.01 µM) was 65.1%, the viability, T/C (second compound 0.316 µM, first compound 0.0316 µM) was 48.9% and the viability, T/C (second compound 0.316 µM, first compound 0.1 µM) was 21.8%. For the same molecule, the viability, T/C (second compound 1 µM, first compound 0.000316 µM) was 65.7%, the viability, T/C (second compound 1 µM, first compound 0.001 µM) was 53.8% and the viability, T/C (second compound 1 µM, first compound 0.00316 µM) was 45.6%. For the same molecule, the viability, T/C (second compound 1 µM, first compound 0.01 µM) was 44.3%, the viability, T/C (second compound 1 µM, first compound 0.0316 µM) was 35.4% and the viability, T/C (second compound 1 µM, first compound 0.1 µM) was 23.5%.

Reference: PubChem BioAssay AID1963963 (Molecular Pharmacology Branch, DTP, NCI, 2024)
